This is an account of results in patent US20190241864A1, “Composition Comprising Non-Germinant and Bacterial Spores” (NOVOZYMES BIOAG A/S, priority 2016, published 2019).

Assay [1] has as its system spores from Bacillus pumilus strain SB3189. Description: Germinant testing of heat-activated spores, decrease in relative OD580. The format is cell-based. The conditions noted are these: 3 mM.
The test system of assay [2] is spores from Bacillus amyloliquefaciens strain SB3615. The description is as above. The conditions noted are these: substance alone, 3 mM; 37° C., 70 minutes.
Assay [3] concerns Bacillus megaterium strain SB3112 spores. Description: Spore germination by DPA release after L-asparagine treatment. Format: cell-based. The conditions noted are these: for Gmax: mean of 3.
For assay [4], the system named is spores from Bacillus megaterium strain SB3112. The experiment in a line: Germinant testing of heat-activated spores, decrease in relative OD580. The format is cell-based. The conditions noted are these: Example 2 studies, 3 mM.
In assay [5] the test system is Bacillus pumilus strain SB3189 spores. Description: Spore germination by dipicolinic acid (DPA) release (Tb-DPA fluorescence) after L-valine treatment. Format: cell-based. The settings on record: for Gmax: then 10 mM AAGFK, mean of 3. The procedure:
This was performed three consecutive times.
Germination of spores in these studies was determined by measuring dipicolinic acid (DPA). DPA is about 10% of the mass of endospores, all of which is generally released when germination is triggered. Boiling spores generally releases all of the DPA. DPA release was detected using terbium chloride (TbCl3), as described below.
To perform the germination assays, 30 μl of spores were added to wells of a 96-well flat-bottom microtiter plate. Subsequently, 35 μl of a 250 μM TbCl3 stock was added. At time 0, 85 μl of a 10 mM L-alanine+10 mM AGFK (10 mM AGFK is 10 mM each of L-asparagine, D-glucose, D-fructose, and KCl) (10 mM AAGFK) was added. […] Tb-DPA is excited at 270 nm and emits at 545 nm. All experimental samples were tested in triplicate. Baseline controls for each sample were generated by omitting L-alanine and these were performed in duplicate. All sample wells were measured immediately after […] was added (time 0) and then over time. For each time point, the data were normalized to values for the spores that had been boiled for two hours to force 100% release of DPA from the spores.

As to `O=C(CO)[C@@H](O)[C@H](O)[C@H](O)CO` [D-fructose], the “germination of spores by substance alone” value in assay [1] is recorded as “None of L-alanine, L-cysteine, D-fructose, or sucrose alone, at a concentration of 3 mM, caused germination”.
Turning to `C[C@H](N)C(=O)O` [L-alanine], the “germination of spores by substance alone” value in assay [1] is listed as “None of L-alanine, L-cysteine, D-fructose, or sucrose alone, at a concentration of 3 mM, caused germination”. In addition, the germination of spores result in assay [2] is listed as “could cause germination”.
Consider `NC(=O)C[C@H](N)C(=O)O` [L-asparagine], for which the “Gmax compared to spores not pretreated with L-asparagine” value in assay [3] (4° C., native and heat-activated spores, all tested concentrations) is “increased Gmax”; in assay [3] (22° C., 3.0 mM, both native and heat-activated spores), “increased Gmax”; in assay [3] (22° C., 10 mM, native spores), “also increased Gmax”. The Gmax in assay [3] (heat activated spores, 0.5 mM L-asparagine overnight at 4° C.) is 106%; in assay [3] (heat activated spores, 0.5 mM L-asparagine overnight at 22° C.) it was 81%; in assay [3] (heat activated spores, 3.0 mM L-asparagine overnight at 4° C.), 109%; in assay [3] (heat activated spores, 3.0 mM L-asparagine overnight at 22° C.) it was 102%; in assay [3] (heat activated spores, 10.0 mM L-asparagine overnight at 4° C.), 114%; in assay [3] (heat activated spores, 10.0 mM L-asparagine overnight at 22° C.), 79%. Moreover, the Gmax came out at 29% in assay [3] (native spores, 0.5 mM L-asparagine overnight at 4° C.); 56% in assay [3] (native spores, 0.5 mM L-asparagine overnight at 22° C.); 28% in assay [3] (native spores, 3.0 mM L-asparagine overnight at 4° C.); 100% in assay [3] (native spores, 3.0 mM L-asparagine overnight at 22° C.); 29% in assay [3] (native spores, 10.0 mM L-asparagine overnight at 4° C.); 81% in assay [3] (native spores, 10.0 mM L-asparagine overnight at 22° C.). In assay [4], the germinant behavior entry is recorded as “not shown to have germinant behavior”.
`N[C@@H](CS)C(=O)O` [L-cysteine]: the “germination of spores by substance alone” value in assay [1] is given as “None of L-alanine, L-cysteine, D-fructose, or sucrose alone, at a concentration of 3 mM, caused germination”.
Turning to `CC(C)[C@H](N)C(=O)O` [L-valine], in assay [1] (tested in combination with individual sugars, and in combination with salts), the germinant activity entry was “did not show germinant activity”. Moreover, the Gmax in assay [5] (0.5 mM L-valine 24 hours at 4° C.) is given as 74%; in assay [5] (0.5 mM L-valine 24 hours at 22° C.), 6%; in assay [5] (3.0 mM L-valine 24 hours at 4° C.), 70%; in assay [5] (3.0 mM L-valine 24 hours at 22° C.), 43%; in assay [5] (10.0 mM L-valine 24 hours at 4° C.) it was 76%; in assay [5] (10.0 mM L-valine 24 hours at 22° C.) it was 77%. For the same molecule, the “change of Gmax” value in assay [5] (0.5 mM L-valine at 22° C.) is “the Gmax decreased”. In addition, the “increase in Gmax compared to the control that did not contain L-valine” value is about 3 fold in assay [5] (3.0 mM L-valine at 22° C.) and about 5 fold in assay [5] (10.0 mM L-valine at 22° C.). For the same molecule, the “change of Tlag” value in assay [5] (L-valine 0.5-10.0 mM, 4° C. and 22° C.) was “Tlag was not changed”. For the same molecule, the “effects on germination parameters” value in assay [5] (L-valine incubated with spores at 4° C.) is given as “small effects on germination parameters”.
Take `OC[C@H]1O[C@@](CO)(O[C@H]2O[C@H](CO)[C@@H](O)[C@H](O)[C@H]2O)[C@@H](O)[C@@H]1O` [sucrose]: the “germination of spores by substance alone” value in assay [1] is listed as “None of L-alanine, L-cysteine, D-fructose, or sucrose alone, at a concentration of 3 mM, caused germination”.
